The values below come from patent US20080171750A1, “Modulation Of Neurogenesis With Use of Modafinil” (BrainCells, Inc., priority 2007, published 2008).

Like-named read-outs stand apart in the source and are kept apart here.

Test [1] concerns Human neural stem cells (hNSCs). Kind of test: Astrocyte differentiation of human neural stem cells (GFAP staining). Format: cell-based.
Test [2] has the same test system. Kind of test: Neuronal differentiation of human neural stem cells (TUJ-1 staining). Format: cell-based. Conditions: for maximum neuronal differentiation percent of positive control: basal media values subtracted, 0.01 μM to 31.6 μM. The method, then: Mitogen-free test media with a positive control for neuronal differentiation was used along with basal media without growth factors as a negative control.
The presence of synergy was determined by use of a combination index (CI). […] The CI is a quantitative measure of the nature of drug interactions, comparing the EC50's of two compounds, when each is assayed alone, to the EC50 of each compound when assayed in combination. The combination index (CI) is equal to the following formula: […]
where C1 and C2 are the concentrations of a first and a second compound, respectively, resulting in 50% activity in neuronal differentiation when assayed in combination; and IC1 and IC2 are the concentrations of each compound resulting in 50% activity when assayed independently.

The target of a further test is human mGlu2 receptors (Homo sapiens, UniProt Q14416). Conditions: low nanomolar range; read-out: EC50 against human mGlu2 receptors in vitro; cited from earlier work.
The target in a further test is human mGlu3 receptors (Homo sapiens, UniProt Q14832). Conditions: low nanomolar range; read-out: EC50 against human mGlu3 receptors in vitro; cited from earlier work.
Test [3] has as its system KA, AMPA, and NMDA iGlu receptors. Conditions: cited from earlier work.
Another test deals with mGluR2 (Homo sapiens, UniProt Q14416). To be noted: read-out: IC50 against mGluR2; cited from earlier work.
For test [4], the system named is Group I or Group III receptors. Conditions: at sub-mM concentrations; cited from earlier work.
For a further test, the target named is mGluR3 (Homo sapiens, UniProt Q14832). Conditions: read-out: IC50 against mGluR3; cited from earlier work.
The mark [5] stands for this setting: Homo sapiens, Neural stem cell, read-out: EC50, neuronal differentiation, agent alone (FIG. 8 experiment).
The mark [6] stands for this setting: Homo sapiens, Neural stem cell, agent alone, concentration response curve 0.01 μM to 31.6 μM (antalarmin to 3.16 μM), modafinil batch of FIG. 1-3, read-out: EC50, neuronal differentiation, agent used alone.

human mGlu2 receptors, sequence (Q14416 19-872): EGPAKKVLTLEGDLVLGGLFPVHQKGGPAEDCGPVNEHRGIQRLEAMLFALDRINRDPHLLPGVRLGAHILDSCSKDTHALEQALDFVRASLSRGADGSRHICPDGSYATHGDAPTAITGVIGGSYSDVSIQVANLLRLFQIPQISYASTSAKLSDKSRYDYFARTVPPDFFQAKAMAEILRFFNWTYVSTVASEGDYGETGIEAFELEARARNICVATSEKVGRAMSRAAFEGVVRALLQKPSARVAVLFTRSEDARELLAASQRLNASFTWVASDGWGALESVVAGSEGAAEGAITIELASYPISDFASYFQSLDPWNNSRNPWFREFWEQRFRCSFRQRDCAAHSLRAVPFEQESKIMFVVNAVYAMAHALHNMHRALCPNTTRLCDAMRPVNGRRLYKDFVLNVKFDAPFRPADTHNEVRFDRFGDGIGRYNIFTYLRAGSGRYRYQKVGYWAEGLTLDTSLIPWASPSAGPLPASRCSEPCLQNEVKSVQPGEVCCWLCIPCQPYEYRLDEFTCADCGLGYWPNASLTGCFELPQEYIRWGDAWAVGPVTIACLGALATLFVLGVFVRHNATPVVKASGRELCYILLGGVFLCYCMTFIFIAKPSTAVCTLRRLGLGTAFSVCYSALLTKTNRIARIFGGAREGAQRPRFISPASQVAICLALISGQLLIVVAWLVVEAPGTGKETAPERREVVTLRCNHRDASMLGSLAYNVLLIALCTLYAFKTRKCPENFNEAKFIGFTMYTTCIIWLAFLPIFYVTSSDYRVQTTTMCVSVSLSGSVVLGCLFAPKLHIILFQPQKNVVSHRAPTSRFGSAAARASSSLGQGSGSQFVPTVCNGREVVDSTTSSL
mGluR2, sequence (Q14416 19-872): as above
mGluR3, sequence (Q14832 23-879): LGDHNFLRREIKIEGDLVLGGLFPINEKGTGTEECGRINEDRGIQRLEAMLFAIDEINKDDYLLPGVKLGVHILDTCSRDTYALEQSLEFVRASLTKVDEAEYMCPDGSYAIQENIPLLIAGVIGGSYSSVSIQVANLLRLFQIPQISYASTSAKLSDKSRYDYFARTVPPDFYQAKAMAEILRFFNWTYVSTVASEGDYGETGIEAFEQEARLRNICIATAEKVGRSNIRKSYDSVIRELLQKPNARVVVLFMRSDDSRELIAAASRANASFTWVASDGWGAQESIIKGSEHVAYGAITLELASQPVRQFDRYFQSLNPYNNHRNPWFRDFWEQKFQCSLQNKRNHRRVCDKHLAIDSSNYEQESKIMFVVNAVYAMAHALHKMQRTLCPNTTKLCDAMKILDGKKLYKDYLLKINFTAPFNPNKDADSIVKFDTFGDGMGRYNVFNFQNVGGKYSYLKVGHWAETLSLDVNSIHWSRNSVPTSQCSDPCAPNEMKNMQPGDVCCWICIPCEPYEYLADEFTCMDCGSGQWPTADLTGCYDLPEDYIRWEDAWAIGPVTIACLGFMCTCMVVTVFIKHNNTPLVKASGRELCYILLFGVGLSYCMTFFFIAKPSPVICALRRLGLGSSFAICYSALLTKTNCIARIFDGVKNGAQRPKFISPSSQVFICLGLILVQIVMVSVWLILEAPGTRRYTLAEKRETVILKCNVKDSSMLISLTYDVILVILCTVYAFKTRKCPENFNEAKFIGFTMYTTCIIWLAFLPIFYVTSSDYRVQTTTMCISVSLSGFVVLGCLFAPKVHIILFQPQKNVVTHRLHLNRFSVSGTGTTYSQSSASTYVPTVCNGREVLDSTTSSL
human mGlu3 receptors, sequence (Q14832 23-879): as above

On to `NC(=O)C[S+]([O-])C(c1ccccc1)c1ccccc1` (stereo not shown) [modafinil, 2-benzhydrylsulfinylethanamide], for which, in test [1] (modafinil alone), the astrogenesis produced result is “little or no astrogenesis”. In addition, the 50% effective concentration (EC50) (as a rule, the concentration that produces a half-maximal response) was 1.93 µM in test [2] (setting [5]); more than 31.6 µM in test [2] (Homo sapiens, Neural stem cell, read-out: EC50, neuronal differentiation, agent used alone); 2.9 µM in test [2] (Homo sapiens, Neural stem cell, read-out: EC50, neuronal differentiation, modafinil alone (batch 2)); approximately 83 µM in test [2] (Homo sapiens, Neural stem cell, read-out: EC50 of modafinil alone, estimated based on extrapolation). Moreover, the “maximum neuronal differentiation percent of positive control” value (“maximum neuronal differentiation percent” below) in test [2] came out at 19%.
For the molecule `NCCc1c[nH]c2ccc(O)cc12` [serotonin, 5-hydroxytryptamine], the EC50 in test [2] (setting [6]) was approximately 6.9 µM.
With `N[C@@]1(C(=O)O)CO[C@H]2[C@H](C(=O)O)[C@H]21` [LY379268, (−)-2-Oxa-4-aminobicyclohexane-4,6-dicarboxylic acid], the 50% effective concentration (EC50) on human mGlu2 receptors and on human mGlu3 receptors was less than 0.01 µM throughout.
Consider `Cc1oc2nc3c(c(NC(=O)CN4CCCC4=O)c2c1C)CCCC3` [MKC-231], for which the 50% effective concentration (EC50) in test [2] (agent alone, concentration response curve 0.01 μM to 31.6 μM (antalarmin to 3.16 μM), modafinil batch of FIG. 1-3, read-out: EC50, neuronal differentiation, agent used alone) stood at 3.9 µM. In test [2], the “maximum neuronal differentiation percent” value is 53%.
Consider `N[C@](CC1c2ccccc2Oc2ccccc21)(C(=O)O)[C@H]1C[C@@H]1C(=O)O` [LY341495, (2S)-2-amino-2-(1S,2S-2-carboxycycloprop-1-yl)-3-(xanth-9-yl) propanoic acid], for which the “activity against KA, AMPA, and NMDA iGlu receptors” value in test [3] was “substantially inactive”.
With `CN1C(=O)COc2c(C(=O)NC3CN4CCC3CC4)cc(Cl)cc21` (stereo not shown) [azasetron], the EC50 in test [2] (setting [6]) was approximately 9.1 µM.
In the case of `NC(=O)C[S@@+]([O-])C(c1ccccc1)c1ccccc1` [armodafinil, (−)-2-[(R)-(diphenylmethyl)-sulfinyl]acetamide], in test [2] (setting [5]), the concentration giving a half-maximal response (EC50) was approximately 1.24 µM.
`CC(=O)NCCCS(=O)(=O)O` [acamprosate]: the EC50 in test [2] (setting [6]) was approximately 39.2 µM.
As to `CCCCN(CC)c1nc(C)nc2c1c(C)c(C)n2-c1c(C)cc(C)cc1C` [antalarmin], the EC50 in test [2] (setting [6]) is approximately 34.9 µM.
Take `NC1(C(=O)O)CCc2cc(P(=O)(O)O)ccc21` (racemic) [APICA, (RS)-1-amino-5-phosphonoindan-1-carboxylic acid]: the IC50 at mGluR2 and on mGluR3 was approximately 30 µM throughout. Besides, in test [4], the “activity against Group I or Group III receptors” value is “no appreciable activity”.
For `O=C1CC2(CCCC2)CC(=O)N1CCCCN1CCN(c2ncccn2)CC1` [buspirone], in test [1] (basal media values subtracted, 0.01 μM to 31.6 μM), the “maximum astrocyte differentiation percent of positive control” value came out at 59%. Also, the concentration for a half-maximal effect (EC50) in test [2] (setting [6]) was 8.4 µM. Moreover, the “maximum neuronal differentiation percent” value in test [2] amounted to 52%.
